ChEMBL document CHEMBL1121678, “Antitumor agents. 44. Bis(helenalinyl) esters and related derivatives as novel potent antileukemic agents” (1981)

Experiments:
Format in all cases: functional
[1] = system: Mus musculus; test: Antileukemic activity of compound against the P-388 lymphocytic leukemic BDF1 male mice at 8(mg/kg)/day, administered intraperitoneally; 14.0/9.66 (Treated/control)
[2] = system: Mus musculus; test: Antileukemic activity of compound against the P-388 lymphocytic leukemic BDF1 male mice at 60 mg/kg/day, administered intraperitoneally; 12.7/9.66 (Treated/control); settings: route intraperitoneal
[3] = system: Mus musculus; test: In vivo antileukemic activity against P-388 lymphocytic leukemia in BDF1 male mice at 30(mg/kg)/day intraperitoneal dose expressed as T/C
[4] = system: Mus musculus; test: Antileukemic activity of compound against the P-388 lymphocytic leukemic BDF1 male mice at 30(mg/kg)/day, administered intraperitoneally; 15.4/9.66 (Treated/control)
[5] = system: Mus musculus; test: In vivo antileukemic activity against P-388 lymphocytic leukemia in BDF1 male mice at 15(mg/kg)/day intraperitoneal dose expressed as T/C
[6] = system: Mus musculus; test: In vivo antileukemic activity against P-388 lymphocytic leukemia in BDF1 male mice at 8(mg/kg)/day intraperitoneal dose expressed as T/C
[7] = system: Mus musculus; test: In vivo antileukemic activity against P-388 lymphocytic leukemia in BDF1 male mice at 60 mg/kg/day intraperitoneal dose expressed as T/C
[8] = system: Mus musculus; test: Antileukemic activity of compound against the P-388 lymphocytic leukemic BDF1 male mice at 15(mg/kg)/day, administered intraperitoneally; 18.7/9.66 (Treated/control)
[9] = system: Mus musculus; test: Antileukemic activity of compound against the P-388 lymphocytic leukemic BDF1 male mice at 15(mg/kg)/day, administered intraperitoneally; 11.0/9.66 (Treated/control)
[10] = system: Mus musculus; test: Antileukemic activity of compound against the P-388 lymphocytic leukemic BDF1 male mice at 60 mg/kg/day, administered intraperitoneally; 3.0/9.66 (Treated/control); settings: route intraperitoneal
[11] = system: Mus musculus; test: In vivo antileukemic activity against P-388 lymphocytic leukemia in BDF1 male mice at 3(mg/kg)/day intraperitoneal dose expressed as T/C
[12] = system: Mus musculus; test: Antileukemic activity of compound against the P-388 lymphocytic leukemic BDF1 male mice at 15(mg/kg)/day, administered intraperitoneally; 11.9/9.66 (Treated/control)
[13] = system: Mus musculus; test: Antileukemic activity of compound against the P-388 lymphocytic leukemic BDF1 male mice at 3(mg/kg)/day, administered intraperitoneally; 12.9/9.66 (Treated/control)
[14] = system: Mus musculus; test: In vivo antileukemic activity against P-388 Lymphocytic Leukemia in BDF1 male mice at 25(mg/kg)/day intraperitoneal dose expressed as T/C
[15] = system: Mus musculus; test: In vivo antileukemic activity against P-388 Lymphocytic Leukemia in BDF1 male mice at 60 mg/kg/day intraperitoneal dose expressed as T/C
[16] = system: Mus musculus; test: Antileukemic activity of compound against the P-388 lymphocytic leukemic BDF1 male mice at 25(mg/kg)/day, administered intraperitoneally; 12.3/9.66 (Treated/control)
[17] = system: Mus musculus; test: Antileukemic activity of compound against the P-388 lymphocytic leukemic BDF1 male mice at 8(mg/kg)/day, administered intraperitoneally; 15.7/9.66 (Treated/control)
[18] = system: Mus musculus; test: In vivo antileukemic activity against P-388 Lymphocytic Leukemia in BDF1 male mice at 15(mg/kg)/day intraperitoneal dose expressed as T/C
[19] = system: Mus musculus; test: Antileukemic activity of compound against the P-388 lymphocytic leukemic BDF1 male mice at 0.6(mg/kg)/day, administered intraperitoneally; 11/9.66 (Treated/control)
[20] = system: Mus musculus; test: Antileukemic activity of compound against the P-388 lymphocytic leukemic BDF1 male mice at 0.6(mg/kg)/day, administered intraperitoneally; 11.0/9.66 (Treated/control)
[21] = system: Mus musculus; test: In vivo antileukemic activity against P-388 lymphocytic leukemia in BDF1 male mice at 0.6(mg/kg)/day intraperitoneal dose expressed as T/C
[22] = system: Mus musculus; test: Antileukemic activity of compound against the P-388 lymphocytic leukemic BDF1 male mice at 0.6(mg/kg)/day, administered intraperitoneally; 11.6/9.66 (Treated/control)

Q: Which “Average survival (days)” value [1] does the source give for `C[C@@H]1C[C@H]2OC(=O)[C@@H](C)[C@H]2[C@H](OC(=O)CCC(=O)O[C@H]2[C@@H]3[C@H](C)C(=O)O[C@@H]3C[C@@H](C)[C@@H]3C=CC(=O)[C@]32C)[C@]2(C)C(=O)C=C[C@@H]12` here?
A: 14

Q: What about the “Average survival (days)” value [2] of the same compound?
A: 12.7

Q: What about the T/C [3] of the same compound?
A: 159%

Q: What about the “Average survival (days)” value [4] of the same compound?
A: 15.4

Q: What about the T/C [5] of the same compound?
A: 194%

Q: And the T/C [6]?
A: 145%

Q: And the T/C [7]?
A: 131%

Q: What about the “Average survival (days)” value [8] of the same compound?
A: 18.7

Q: For `C=C1C(=O)O[C@@H]2C[C@@H](C)[C@@H]3CCC(=O)[C@@]3(C)[C@@H](OC(=O)CC(=O)OCC)[C@H]12`, which “Average survival (days)” value [9] is on record?
A: 11

Q: What about the T/C [7] of the same compound?
A: 114%

Q: Which “Average survival (days)” value [10] does the source give for `C=C1C(=O)O[C@@H]2C[C@@H](C)[C@@H]3C=CC(=O)[C@@]3(C)[C@@H](O)[C@H]12` [HELENALIN] here?
A: 3

Q: And the T/C [11]?
A: 134%

Q: And the “Average survival (days)” value [12]?
A: 11.9

Q: And the “Average survival (days)” value [13]?
A: 12.9

Q: What about the T/C [6] of the same compound?
A: 162%

Q: What about the T/C [14] of the same compound?
A: 127%

Q: What about the T/C [15] of the same compound?
A: 31%

Q: What about the “Average survival (days)” value [16] of the same compound?
A: 12.3

Q: And the “Average survival (days)” value [17]?
A: 15.7

Q: What about the T/C [18] of the same compound?
A: 123%

Q: For `CCOC(=O)CC(=O)OCC` [MALONIC ACID DIETHYL ESTER], which “Average survival (days)” value [19] is on record?
A: 11

Q: What about the T/C [7] of the same compound?
A: 114%

Q: `O=C(O)CC(=O)O` [MALONIC ACID] was tested. Which “Average survival (days)” value [20] did it give?
A: 11

Q: And the T/C [21]?
A: 114%

Q: Which results are given for `CCOC(=O)CCC(=O)OCC` [SUCCINIC ACID DIETHYL ESTER]?
A: T/C [7]: 120%; Average survival (days) [22]: 11.6

Q: With `O=C(O)CCC(=O)O` [SUCCINIC ACID] as the compound, how does the T/C [7] read?
A: 111%
